These results are taken from article PMC7435600, “Flavonoids and Terpenoids with PTP-1B Inhibitory Properties from the Infusion of Salvia amarissima Ortega” (Molecules, 2020).

The target in assay [1] is T1, protein tyrosine phosphatase 1B (PTP-1B) (Homo sapiens, UniProt P18031).
T1 construct: made in house
T1 sequence (P18031 1-435): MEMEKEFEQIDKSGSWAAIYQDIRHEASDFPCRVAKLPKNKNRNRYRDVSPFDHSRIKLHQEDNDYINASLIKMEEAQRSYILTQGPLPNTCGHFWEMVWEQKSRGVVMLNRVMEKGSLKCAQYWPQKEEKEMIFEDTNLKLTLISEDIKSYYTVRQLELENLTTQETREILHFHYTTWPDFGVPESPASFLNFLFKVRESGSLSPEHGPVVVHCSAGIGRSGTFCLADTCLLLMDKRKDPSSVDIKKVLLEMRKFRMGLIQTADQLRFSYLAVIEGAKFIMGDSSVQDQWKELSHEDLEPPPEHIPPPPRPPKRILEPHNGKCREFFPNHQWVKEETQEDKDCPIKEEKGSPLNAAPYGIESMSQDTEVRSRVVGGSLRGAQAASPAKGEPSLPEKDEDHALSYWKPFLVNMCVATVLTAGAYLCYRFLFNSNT
Kind of assay: Protein tyrosine phosphatase 1B inhibition assay (pNPP). Type of assay: biochemical. Particulars: for IC50: hPTP-1B, pNPP substrate, three independent determinations, read-out: PTP-1B inhibitory activity expressed as IC50 (converted). On the procedure: The expression and purification of hPTP-1B was performed as previously described. […] Aliquots of 0–10 μL of testing materials (triplicated) were incubated for 5 min with 20 μL of enzyme stock solution in Tris-HCl (22 nM). After incubation, 10 μL of p-nitrophenylphosphate (pNPP; 5 mM) was added and further incubated for 15 min at 25 °C; then, the absorbance was determined (λmax 415 nm). For all samples, the inhibitory activity was determined as a percentage in comparison to the blank (Tris-HCl) according to the following equation:(1) % PTP1B=(1−A415t/A415C)×100 where % PTP-1B is the percentage of inhibition, A415t is the corrected absorbance of the extracts, fraction, or compounds under testing (A415end − A415initial) and A415C is the absorbance of the blank (A415end blank − A415initial blank).

The test system of another assay is mammal α-glucosidases. Also noted: method as in PMID 28422509. The conditions noted are these: cited from earlier work.
Details of assay [2]: method as in doi:10.17129/botsci.2187. The conditions noted are these: cited from earlier work.
For the next assay, the system named is PTP-1B. Also noted: method as in PMID 22940448. Particulars: other studies; cited from earlier work.

The IC50 is the concentration at which inhibition is half-maximal. In the case of `CC1CCC23COC(=O)C2=CC(OC2OC(CO)C(O)C(O)C2O)CC3C1(C)CCc1ccoc1` (stereo not drawn) [Compound 1, amarisolide], in assay [1], the IC50 is 280 µM. Besides, in the assay on mammal α-glucosidases (in vitro and in vivo), the “inhibitory activity against mammal α-glucosidases” value is recorded as “showed inhibitory activity”. In addition, the “inhibition of α-glycosidases in vivo” value in the assay with mammal α-glucosidases is “inhibited”. Also, the antinociceptive properties entry in assay [2] is recorded as “demonstrated”.
`COc1cc(-c2cc(=O)c3c(O)c(O)c(OC)cc3o2)ccc1O` [Compound 2, 5,6,4′-trihydroxy-7,3′-dimethoxyflavone]: the IC50 in assay [1] was 189 µM.
On to `O=c1cc(-c2ccc(O)c(O)c2)oc2cc(O)c(O)c(O)c12` [Compound 3, 6-hydroxyluteolin], for which, in assay [1], the IC50 is 80.1 µM.
With `C[C@@H]1O[C@@H](OC[C@H]2O[C@@H](Oc3c(-c4ccc(O)c(O)c4)oc4cc(O)cc(O)c4c3=O)[C@H](O)[C@@H](O)[C@@H]2O)[C@H](O)[C@H](O)[C@H]1O` [Compound 4, rutin], in assay [1], the IC50 is 323 µM.
Same read-out and setting: for `O=C(/C=C/c1ccc(O)c(O)c1)O[C@H](Cc1ccc(O)c(O)c1)C(=O)O` [Compound 5, rosmarinic acid] the value was 137 µM.
On the same count and under the same terms, for `O=c1c(O[C@@H]2O[C@H](CO)[C@@H](O)[C@H](O)[C@H]2O)c(-c2ccc(O)c(O)c2)oc2cc(O)cc(O)c12` [Compound 6, isoquercitrin] the value was 260 µM.
Turning to `COc1cc2oc(-c3ccc(O)c(O)c3)cc(=O)c2c(O)c1O` [Compound 7, pedalitin], in assay [1], the IC50 is 62 µM. Also, the “inhibition of α-glycosidases in vivo” value in the assay with mammal α-glucosidases is “inhibited”. In addition, the antinociceptive properties result in assay [2] is reported as “demonstrated”.
For `C[C@@H]1CC[C@@]23COC(=O)C2=C[C@@H](O[C@@H]2O[C@H](CO)[C@@H](O)[C@H](O)[C@H]2O)C[C@@H]3[C@@]1(C)CCC1=CC(=O)OC1O` (stereo partly drawn) [Compound 8a,b, (2S,5S,8R,9R,10R,14R,S)-2-(O-β-D-glucopyranosyl)-neo-clerodan-14-hydroxy-3, 13-diene-14,15;18,19-diolide], in assay [1], the IC50 was 514 µM.
As to `C[C@H]1[C@H](C)CC[C@]2(C(=O)O)CC[C@]3(C)C(=CC[C@@H]4[C@@]5(C)CC[C@H](O)C(C)(C)[C@@H]5CC[C@]43C)[C@H]12` [UA, ursolic acid, reference compound], the “times more active than compound 7 experimentally” value in assay [1] (ratio of PTP-1B IC50, UA vs compound 7) was found to be 2.2 times. Further, in the assay on PTP-1B, the half-inhibitory concentration (IC50) was […].
